Data: patent US10214762B2, “Cell differentiation devices and methods” (GEORGIA TECH RESEARCH CORPORATION, priority 2014, dated 2019)

Columns and labels:
[1] = system: E. Coli strain (ATCC 43888); assay: three-channel, six-chamber microfluidic chemotaxis assay; assay type: cell-based, Escherichia coli
Protocol: PBS, Tris and LB were autoclaved before use. E Coli strain (ATCC 43888) was obtained from Fisher Scientific (Pittsburgh, Pa.). All cultures were grown in 10 mL of LB incubated at 37° C. for approximately 4 hours until the optical density of sample at wavelength of 600 nm reached 0.8. Optical density at 600 nm was measured for cell culture quantification.
An exemplary device described and depicted herein consists of a center channel that delivers a bacteria sample from a small reservoir to the central interaction region, where the channel is perpendicularly connected to six chambers. […] These channels serve as a source for generating a chemical gradient in the chambers. A nitrocellulose membrane (Millipore type GSTF) with a 0.22 μm pore size serves as a porous medium that separates the side channels from the chambers while allowing chemicals to diffuse through to the chambers. The pore size of 0.22 μm was selected as an exemplary pore size to ensure chemical axial flow through the porous nitrocellulose substrate, while prohibiting the passage of the cells or analyte to be analyzed through the porous substrate. Other pore sizes may be utilized depending on the type of assay and cells or analyte to be analyzed are contemplated herein.
The same volume of buffer saline was taken back through the filter into the syringe; suspending the cells in the buffer saline medium. This process was repeated three times to ensure the complete exchange of growth medium with buffer saline. The bacterial motility was not affected.
The microfluidic device was prepared as follow. The top glass assembly was properly cleaned and reused for many experiments, while the membrane and the bottom glass were renewed for each experiment. Acetone, isopropanol, and DI water were used to effectively clean the top glass and reservoirs. The membrane layer was soaked entirely in buffer solution for 30 min before use to ensure the removal of all air bubbles. The soaked membrane was then aligned with the inlet/outlet ports on the top glass and sandwiched between the top glass and another glass slide using 6 small stainless steel clips that provide constant and consistent pressure over the entire membrane area, as shown in FIG. 3.
After the device assembly, the input reservoirs were filled with buffer and the output reservoirs were vacuumed for a few seconds, the strong resulting flow expels all possible bubbles from the microfluidic system. The channels were inspected under microscope before conducting tests. All the experiments were conducted at least for three times to determine reproducibility. The bacterial chemotaxis experiments were conducted at an ambient temperature of 36° C.
Chemotactic response of cells to a chemical gradient was tested in another set of experiments. […]

[2] = capillary assay; cited from earlier work
[3] = system: E Coli; conditions: agarose gel diffusive medium; cited from earlier work
[4] = system: E Coli; conditions: about 20 mM aspartic acid; cited from earlier work

| Structure (SMILES) | ratio of bacteria count in the buffer chambers to the repellent side chambers ([1]; 0.5 mM NiCl2 as repellent, Tris Buffered Saline) | motility of the cells after introducing the repellent ([1]; due to an increase in tumbling frequency) | peak concentration for chemotaxis [2] | concentration generating the maximum chemotactic response [3] | chemotactic index (peak response) [4] | chemotaxis index (IC) ([1]; 0.5 mM aspartic acid in PBS buffer as attractant, cells in attractant chambers vs buffer side chambers, about 30 min) | aspartic acid concentration giving a more significant chemotactic response ([1]; different aspartic acid concentrations tried) |
| --- | --- | --- | --- | --- | --- | --- | --- |
| [Cl][Ni][Cl] [NiCl2, nickel chloride] | more than 8 times | reduced to some degree | – | – | – | – | – |
| N[C@@H](CC(=O)O)C(=O)O [aspartic acid, L-aspartic acid] | – | – | about 10 mM | 0.5 mM | 1.74 | 4 | 0.5 mM |
